Patent publication US9034866B2 (Genentech, Inc., priority 2012, dated 2015)
Where two headings read alike, the source gives them in different places.

Tests used:
[1] = test system: REL-A (p65) nuclear translocation in HeLa cells; assay: REL-A nuclear translocation assay (classical NF-kB signaling), high content imaging; format: cell-based; details: Homo sapiens, compounds 4.5 hours, then 10 ng/mL TNF-α for 30 minutes, read-out: REL-A HeLa Transloc Assay (IC50)
Procedure, shortened: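 HeLa cells in 10% FBS medium preincubated with compounds (0.2% DMSO final) for 4.5 hours, then stimulated with 10 ng/mL TNF-α for 30 minutes. Fixed cells stained with 400 ng/mL anti-REL-A antibody, Alexa488 secondary and DRAQ5; translocation quantified by imaging as nuclear to cytoplasmic signal ratio.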

[2] = target: nuclear factor-kappa B (NF-kB)-inducing kinase (NIK) (Homo sapiens (Human), UniProt Q99558); assay: NIK Enzyme Inhibition Assay (Transcreener ADP fluorescence polarization); format: biochemical; details: read-out: NIK ADP-FP (Ki uM)
Procedure, shortened: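 Fluorescence-polarization ADP detection (tracer displacement, 633 nm excitation) read after EDTA/Brij quench. Reaction: 0.2-1 nM insect-cell-derived NIK, 10 uM ATP, HEPES pH 7.2 with MgCl2 and DTT, 1% DMSO, 1-3.5 h with compounds.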

[3] = test system: p52 (NF-kB2) nuclear translocation in HeLa cells; assay: p52 nuclear translocation assay (non-classical NF-kB signaling), high content imaging; format: cell-based; details: Homo sapiens, 100 ng/mL anti-lymphotoxin beta receptor antibody for 5 hours, read-out: p52 HeLa Transloc Assay (IC50)
Method: (2) A second set of cell assay are used to define the selectivity of NIK inhibitors toward inhibition of classical vs. non-classical NF-kB signaling and rely on quantification of the nuclear translocation of p52 (NF-kB2) and REL-A (p65) using high content cellular imaging. For the p52 (non-classical NF-kB signaling) nuclear translocation assay, HeLa cells are treated with different concentrations of compounds (0.2% DMSO final) in medium containing 10% fetal bovine serum and then stimulated with 100 ng/mL, of an anti-lymphotoxin beta receptor antibody (R&D Systems) for 5 hours. In the REL-A nuclear translocation assay, HeLa cells are incubated with compounds (0.2% DMSO final) for 4.5 hours in medium containing 10% fetal bovine serum before stimulating them with 10 ng/mL tumor necrosis factor (TNF)-α (R&D Systems) for 30 minutes. Cells are fixed with 4% paraformaldehyde, permeabilized by adding 0.1% Triton X-100 in phosphate buffered saline, and then are incubated with either 2 ug/mL anti-p52 antibody (Millipore) or 400 ng/mL anti-REL-A (p65) antibody (Santa Cruz Biotechnology). Finally, the cells are incubated with an Alexa488-labeled secondary antibody (Invitrogen) and DRAQ5 DNA stain (Biostatus). Imaging is carried out using an Opera reader (Perkin Elmer) and data are analyzed with the aid of Acapella software (Perkin Elmer). The p52 or REL-A translocation into the nucleus is quantified by the ratio of the nuclear to cytoplasmic signal intensity. […] The compounds in listed in Table 1 have the corresponding inhibitory value (IC50 in micromolar) for NIK p52 Translocation Assay as set forth in Table 2.

[4] = purified NIK 0.2-1 nM, 10 uM ATP, Morrison's quadratic equation

Sequence of nuclear factor-kappa B (NF-kB)-inducing kinase (NIK) (Q99558 whole entry): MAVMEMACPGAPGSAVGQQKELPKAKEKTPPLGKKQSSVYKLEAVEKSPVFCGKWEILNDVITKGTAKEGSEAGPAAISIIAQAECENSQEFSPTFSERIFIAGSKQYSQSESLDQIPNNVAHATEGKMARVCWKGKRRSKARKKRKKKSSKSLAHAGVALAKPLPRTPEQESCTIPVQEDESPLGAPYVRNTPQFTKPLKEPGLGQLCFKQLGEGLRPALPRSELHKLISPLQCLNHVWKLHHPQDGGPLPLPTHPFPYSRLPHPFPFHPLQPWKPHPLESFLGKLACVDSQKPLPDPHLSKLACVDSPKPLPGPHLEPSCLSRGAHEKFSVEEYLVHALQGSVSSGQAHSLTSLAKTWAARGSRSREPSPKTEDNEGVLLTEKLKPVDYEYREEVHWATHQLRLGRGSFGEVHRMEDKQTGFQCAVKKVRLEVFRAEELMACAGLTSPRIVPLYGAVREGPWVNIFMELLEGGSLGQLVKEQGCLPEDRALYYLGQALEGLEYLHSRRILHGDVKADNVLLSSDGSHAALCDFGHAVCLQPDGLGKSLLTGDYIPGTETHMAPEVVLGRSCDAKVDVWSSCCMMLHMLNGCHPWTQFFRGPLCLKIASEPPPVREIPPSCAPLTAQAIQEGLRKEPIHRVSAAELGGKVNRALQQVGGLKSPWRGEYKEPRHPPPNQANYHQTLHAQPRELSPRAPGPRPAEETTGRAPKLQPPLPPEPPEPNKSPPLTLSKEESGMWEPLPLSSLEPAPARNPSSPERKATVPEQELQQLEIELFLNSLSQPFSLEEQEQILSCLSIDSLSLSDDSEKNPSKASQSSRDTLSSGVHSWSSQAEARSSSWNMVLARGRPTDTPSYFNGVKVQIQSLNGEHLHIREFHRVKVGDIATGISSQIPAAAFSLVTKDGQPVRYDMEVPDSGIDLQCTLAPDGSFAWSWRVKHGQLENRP

Compound	IC50 ([1]; HeLa)	Ki [2]	IC50 ([3]; HeLa, 5 h)	Ki [2, 4]	IC50 [1]	IC50 [3]
CNC(=O)c1c(C(N)=O)nc2n1CCOc1cc(F)c(C#C[C@@](C)(O)c3cc(C)on3)cc1-2 [Example 99, 8-fluoro-9-[(R)-3-hydroxy-3-(5-methyl-isoxazol-3-yl)-but-1-ynyl]-4,5-dihydro-6-oxa-1,3a-diaza-benzo[e]azulene-2,3-di-carboxylic acid 2-amide 3-methylamide]	20000 nM	0.001 µM	62.5 nM			
Cc1cc([C@](C)(O)C#Cc2cc3c(cc2F)OCCn2c-3nc(C(N)=O)c2-c2cnn(CC(C)(C)O)c2)no1 (racemic)	> 20000 nM		1800 nM	0.00127 µM		
Cc1cc([C@](C)(O)C#Cc2cc3c(cc2F)C2CC(C2)n2c-3nc(C(N)=O)c2C)no1	> 20000 nM		385 nM	0.0013 µM		
CN1CC[C@@](O)(C#Cc2cc3c(cc2F)C2CC(C2)n2c-3nc(C(N)=O)c2C(C)(C)O)C1=O [Example 327, 9-fluoro-3-(1-hydroxy-1-methyl-ethyl)-10-[2-[(3R)-3-hydroxy-1-methyl-2-oxo-pyrrolidin-3-yl]ethynyl]-5,6,7,12-tet-rahydro-5,7-methanobenzo[c]imidazo[1,2-a]azepine-2-carboxamide]	> 20000 nM		7800 nM	0.00685 µM		
CNC(=O)c1c(C(N)=O)nc2n1C1CC(C1)c1ccc(C#C[C@@](C)(O)c3noc(C)n3)cc1-2	17500 nM		3800 nM	0.0021 µM		
Cc1nc([C@](C)(O)C#Cc2cc3c(cc2F)C2CC(C2)n2c-3nc(C(N)=O)c2C(F)(F)F)no1 (racemic)	> 20000 nM		2300 nM	0.0072 µM		
CNC(=O)c1c(C(N)=O)nc2n1C1CC(C1)c1ccc(C#C[C@@](C)(O)c3ccccn3)cc1-2	> 20000 nM		830 nM	0.0021 µM		
CC(C)(O)C#Cc1cc2c(cc1F)C1CC(C1)n1c-2nc(C(N)=O)c1C1(O)COC1 [Example 339, 9-fluoro-10-(3-hydroxy-3-methyl-but-1-ynyl)-3-(3-hydroxyoxetan-3-yl)-5,6,7,12-tetrahydro-5,7-methanobenzo[c]imi-dazo[1,2-a]azepine-2-carboxamide]				0.007 µM	> 20000 nM	2600 nM
Cc1cc([C@](C)(O)C#Cc2cc3c(cc2F)OCCn2cc(C(N)=O)nc2-3)no1 [Example 6, 8-fluoro-9-[(R)-3-hydroxy-3-(5-methyl-isoxazol-3-yl)-but-1-ynyl]-4,5-dihydro-6-oxa-1,3a-diaza-benzo[e]azulene-2-car-boxylic acid amide]	20000 nM		135 nM	0.0003 µM		
CC(O)(C#Cc1cc2c(cc1F)OCCn1cc(C(N)=O)nc1-2)CF (racemic) [Example 75]	20000 nM		3800 nM	0.008 µM		
Cn1c(C(N)=O)nc2c1C1CC(C1)c1cc(F)c(C#C[C@@](C)(O)c3ncccn3)cc1-2 [Example 283, (R)-8-fluoro-9-(3-hydroxy-3-(pyrimidin-2-yl)but-1-yn-1-yl)-3-methyl-3,4,5,6-tetrahydro-4,6-methanobenzo[3,4]cyclo-hepta[1,2-d]imidazole-2-carboxamide]	20000 nM		881 nM	0.00016 µM		
Cc1cc([C@](C)(O)C#Cc2ccc3c(c2)-c2nc(C(N)=O)c(CN4CCOCC4)n2CCO3)no1 [Example 103, 9-[(R)-3-hydroxy-3-(5-methyl-isoxazol-3-yl)-but-1-ynyl]-3-morpholin-4-ylmeth-yl-4,5-dihydro-6-oxa-1,3a-diaza-ben-zo[e]azulene-2-carboxylic acid amide]	20000 nM		104 nM	0.002 µM		
Cn1nccc1Cn1c(C(N)=O)nc2c1C1CC(C1)c1cc(F)c(C#CC(C)(C)O)cc1-2 [Example 391]	20000 nM		36.8 nM	0.002 µM		
Cc1cc([C@](C)(O)C#Cc2ccc3c(c2)-c2nc(C(N)=O)c(C(=O)NC4CCOCC4)n2C2CC3C2)no1 (racemic)	20000 nM		284 nM	0.0011 µM		
Cc1cc([C@](C)(O)C#Cc2ccc3c(c2)-c2nc(C(N)=O)c(C(F)(F)F)n2CCO3)no1 (racemic)	> 20000 nM		4500 nM	0.0049 µM		
CC(C)(O)C#Cc1cc2c(cc1F)OCCn1c-2nc(C(N)=O)c1C(=O)NCC#N	20000 nM		77 nM	0.0004 µM		
C[C@@](O)(C#Cc1ccc2c(c1)-c1nc(C(N)=O)c(-c3nc(C4CC4)n[nH]3)n1CCO2)c1ncccn1	> 20000 nM		2100 nM	0.0072 µM		
Cc1cc([C@](C)(O)C#Cc2cc3c(cc2F)C2CC(C2)c2[nH]c(C(N)=O)nc2-3)no1	> 20000 nM		477 nM	0.0002 µM		

Compound	IC50 ([1]; HeLa)	Ki [2]	IC50 ([3]; HeLa, 5 h)	Ki [2, 4]	IC50 [1]	IC50 [3]
Cc1cc([C@](C)(O)C#Cc2ccc3c(c2)-c2nc(C(N)=O)c(-c4cnn(CC(C)(C)O)c4)n2C2CC3C2)no1	> 20000 nM		934 nM	0.00059 µM		
Cc1nc([C@](C)(O)C#Cc2ccc3c(c2)-c2nc(C(N)=O)n(C)c2C2CC3C2)no1 [Example 426]	> 20000 nM		406 nM	0.0018 µM		
Cn1c(C(N)=O)nc2c1C1CC(C1)c1cc(F)c(C#CC(C)(C)O)cc1-2	> 20000 nM		286 nM	0.0078 µM		
Cc1c(C(N)=O)nc2n1C1CC(C1)c1cc(F)c(C#C[C@@](C)(O)c3ncccn3)cc1-2 [Example 321, 9-fluoro-10-[(3R)-3-hydroxy-3-pyrim-idin-2-yl-but-1-ynyl]-3-methyl-5,6,7,12-tet-rahydro-5,7-methanobenzo[c]imidazo[1,2-a]azepine-2-carboxamide]	> 20000 nM		3000 nM	0.012 µM		
Cc1cc([C@](C)(O)C#Cc2ccc3c(c2)-c2nc(C(N)=O)c(CC4(C)COC4)n2C2CC3C2)no1 (racemic)	> 20000 nM		740 nM	0.0012 µM		
CN1CC[C@@](O)(C#Cc2ccc3c(c2)-c2nc(C(N)=O)cn2C2CC3C2)C1=O	20000 nM	0.0012 µM	1500 nM			
Cc1cc([C@](C)(O)C#Cc2ccc3c(c2)-c2nc(C(N)=O)sc2CCO3)no1 [Example 7, 9-[(R)-3-hydroxy-3-(5-methyl-isoxazol-3-yl)-but-1-ynyl]-4,5-dihydro-6-oxa-3-thia-1-aza-benzo[e]azulene-2-carboxylic acid amide]	20000 nM		39.5 nM	0.0002 µM		
C[C@@](O)(C#Cc1cc2c(cc1F)OCCn1c-2nc(C(N)=O)c1-c1nc(C2CC2)n[nH]1)c1ncccn1	> 20000 nM		1600 nM	0.0047 µM		
CNC(=O)c1c(C(N)=O)nc2n1CCOc1ccc(C#CC3(O)CCC3)cc1-2	> 20000 nM		727 nM	0.0022 µM		
CC(C)NC(=O)c1c(C(N)=O)nc2n1CCOc1ccc(C#C[C@]3(O)CCN(C)C3=O)cc1-2	> 20000 nM		316 nM	0.0012 µM		
CC(C)(O)C#Cc1cc2c(cc1F)C1CC(C1)n1c-2nc(C(N)=O)c1C(F)(F)F	> 20000 nM		2600 nM	0.0095 µM		
Cc1cc([C@](C)(O)C#Cc2ccc3c(c2)-c2nc(C(N)=O)c(Cc4ccnn4C)n2C2CC3C2)no1	> 20000 nM		1700 nM	0.0002 µM		
NC(=O)c1cn2c(n1)-c1cc(C#CC3(O)CCc4cccnc43)c(F)cc1OCC2 (racemic)	> 20000 nM		1500 nM	0.0009 µM		
Cc1nc([C@](C)(O)C#Cc2cc3c(cc2F)C2CC(C2)n2c-3nc(C(N)=O)c2C)no1	> 20000 nM		1100 nM	0.0007 µM		
CNC(=O)c1c(C(N)=O)nc2n1C1CC(C1)c1cc(F)c(C#CC(C)(C)O)cc1-2 (racemic)	> 20000 nM		358 nM	0.0022 µM		
Cc1nc([C@](C)(O)C#Cc2cc3c(cc2F)OCCc2sc(C(N)=O)nc2-3)no1	20000 nM		171 nM	0.001 µM		
Cc1cc([C@](C)(O)C#Cc2ccc3c(c2)-c2nc(C(N)=O)c(C(F)(F)F)n2C2CC3C2)no1	15100 nM	0.0005 µM	511 nM			
